# Key:
# [1] = target: RAF proto-oncogene serine/threonine-protein kinase (Homo sapiens, UniProt P04049); assay: Inhibition of human C-raf using biotin-MEK1 substrate incubated for 1 hr
# [2] = target: T1, Serine/threonine-protein kinase A-Raf (Homo sapiens, UniProt P10398); assay: Inhibition of A-Raf (unknown origin)
# T1 sequence (P10398 whole entry): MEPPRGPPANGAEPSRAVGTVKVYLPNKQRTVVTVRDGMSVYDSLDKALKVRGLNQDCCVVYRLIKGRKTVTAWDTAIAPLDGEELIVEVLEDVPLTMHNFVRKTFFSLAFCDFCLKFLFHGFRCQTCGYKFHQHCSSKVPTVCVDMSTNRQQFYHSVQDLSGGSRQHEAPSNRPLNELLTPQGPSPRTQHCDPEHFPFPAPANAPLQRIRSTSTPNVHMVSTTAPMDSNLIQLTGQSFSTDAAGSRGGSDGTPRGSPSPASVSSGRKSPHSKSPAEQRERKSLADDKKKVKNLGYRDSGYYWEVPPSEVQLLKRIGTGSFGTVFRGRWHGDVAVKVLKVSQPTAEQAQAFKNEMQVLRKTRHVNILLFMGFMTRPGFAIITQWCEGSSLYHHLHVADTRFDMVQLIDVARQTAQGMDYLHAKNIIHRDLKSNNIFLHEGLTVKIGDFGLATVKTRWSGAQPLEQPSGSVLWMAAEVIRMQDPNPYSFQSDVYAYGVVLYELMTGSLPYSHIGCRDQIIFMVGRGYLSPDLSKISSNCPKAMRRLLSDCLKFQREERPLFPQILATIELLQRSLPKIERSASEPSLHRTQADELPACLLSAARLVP
# [3] = target: Serine/threonine-protein kinase B-raf (Homo sapiens, UniProt P15056, V600E); assay: Inhibition of B-raf V600E mutant (unknown origin) expressed in Sf9 cells using biotin-MEK1substrate incubated for 1 hr
# [4] = target: Serine/threonine-protein kinase B-raf (Homo sapiens, UniProt P15056); assay: Inhibition of N-terminal GST-tagged human recombinant B-Raf (416 to end residues) using biotin-MEK1 substrate incubated for 1 hr
# [5] = target: Mast/stem cell growth factor receptor Kit (Homo sapiens, UniProt P10721); assay: Inhibition of Kit (unknown origin) expressed in Escherichia coli
# [6] = target: Vascular endothelial growth factor receptor 2 (Homo sapiens, UniProt P35968); assay: Inhibition of KDR (unknown origin) by FRET assay
# [7] = target: Macrophage colony-stimulating factor 1 receptor (Homo sapiens, UniProt P07333); assay: Inhibition of Fms (unknown origin)
# [8] = target: Proto-oncogene tyrosine-protein kinase Src (Homo sapiens, UniProt P12931); assay: Inhibition of Src (unknown origin) expressed in Escherichia coli using biotin-(E4Y)3 substrate
# [9] = target: High affinity nerve growth factor receptor (Homo sapiens, UniProt P04629); assay: Inhibition of TrkA (unknown origin)
# [10] = target: T2, Tyrosine-protein kinase Tec (Homo sapiens, UniProt P42680); assay: Inhibition of TEC (unknown origin)
# T2 sequence (P42680 whole entry): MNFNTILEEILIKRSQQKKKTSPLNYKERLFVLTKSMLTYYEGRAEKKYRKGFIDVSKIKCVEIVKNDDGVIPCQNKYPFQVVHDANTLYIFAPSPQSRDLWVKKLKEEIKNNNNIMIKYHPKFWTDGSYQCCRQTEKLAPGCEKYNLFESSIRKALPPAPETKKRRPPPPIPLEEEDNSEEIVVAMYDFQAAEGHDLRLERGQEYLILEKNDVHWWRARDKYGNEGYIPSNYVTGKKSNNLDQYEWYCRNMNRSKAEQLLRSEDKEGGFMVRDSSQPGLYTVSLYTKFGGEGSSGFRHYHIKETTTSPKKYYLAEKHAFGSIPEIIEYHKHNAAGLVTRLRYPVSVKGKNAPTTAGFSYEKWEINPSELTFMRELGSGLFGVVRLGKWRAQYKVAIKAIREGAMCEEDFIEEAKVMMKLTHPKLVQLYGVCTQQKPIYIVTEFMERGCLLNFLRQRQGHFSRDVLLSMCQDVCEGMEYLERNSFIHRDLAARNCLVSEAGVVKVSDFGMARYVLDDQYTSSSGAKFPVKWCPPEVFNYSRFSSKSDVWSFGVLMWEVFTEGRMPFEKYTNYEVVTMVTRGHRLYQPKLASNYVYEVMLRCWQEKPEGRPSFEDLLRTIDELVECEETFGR
# Serine/threonine-protein kinase B-raf (Homo sapiens, UniProt P15056), sequence (P15056 whole entry): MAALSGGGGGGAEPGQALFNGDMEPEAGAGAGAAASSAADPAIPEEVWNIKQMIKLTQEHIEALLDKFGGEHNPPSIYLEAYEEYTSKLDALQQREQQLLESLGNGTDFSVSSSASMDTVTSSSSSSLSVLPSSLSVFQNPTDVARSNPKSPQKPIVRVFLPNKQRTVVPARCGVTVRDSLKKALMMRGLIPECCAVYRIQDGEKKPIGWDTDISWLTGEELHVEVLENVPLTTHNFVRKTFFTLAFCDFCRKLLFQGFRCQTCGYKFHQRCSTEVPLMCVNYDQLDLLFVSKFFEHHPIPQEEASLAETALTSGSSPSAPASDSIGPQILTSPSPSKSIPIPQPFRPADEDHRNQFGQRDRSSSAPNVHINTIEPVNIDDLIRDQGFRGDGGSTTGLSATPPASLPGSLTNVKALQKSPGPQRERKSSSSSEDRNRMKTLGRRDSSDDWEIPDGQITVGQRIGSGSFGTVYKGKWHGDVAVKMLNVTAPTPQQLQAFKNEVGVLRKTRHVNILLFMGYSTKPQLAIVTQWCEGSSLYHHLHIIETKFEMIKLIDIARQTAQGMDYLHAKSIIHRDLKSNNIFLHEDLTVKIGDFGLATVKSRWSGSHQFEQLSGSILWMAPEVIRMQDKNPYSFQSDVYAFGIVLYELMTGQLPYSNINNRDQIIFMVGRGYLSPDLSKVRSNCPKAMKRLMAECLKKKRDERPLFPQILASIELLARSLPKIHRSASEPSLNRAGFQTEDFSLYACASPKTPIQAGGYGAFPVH
# Macrophage colony-stimulating factor 1 receptor, sequence (P07333 whole entry): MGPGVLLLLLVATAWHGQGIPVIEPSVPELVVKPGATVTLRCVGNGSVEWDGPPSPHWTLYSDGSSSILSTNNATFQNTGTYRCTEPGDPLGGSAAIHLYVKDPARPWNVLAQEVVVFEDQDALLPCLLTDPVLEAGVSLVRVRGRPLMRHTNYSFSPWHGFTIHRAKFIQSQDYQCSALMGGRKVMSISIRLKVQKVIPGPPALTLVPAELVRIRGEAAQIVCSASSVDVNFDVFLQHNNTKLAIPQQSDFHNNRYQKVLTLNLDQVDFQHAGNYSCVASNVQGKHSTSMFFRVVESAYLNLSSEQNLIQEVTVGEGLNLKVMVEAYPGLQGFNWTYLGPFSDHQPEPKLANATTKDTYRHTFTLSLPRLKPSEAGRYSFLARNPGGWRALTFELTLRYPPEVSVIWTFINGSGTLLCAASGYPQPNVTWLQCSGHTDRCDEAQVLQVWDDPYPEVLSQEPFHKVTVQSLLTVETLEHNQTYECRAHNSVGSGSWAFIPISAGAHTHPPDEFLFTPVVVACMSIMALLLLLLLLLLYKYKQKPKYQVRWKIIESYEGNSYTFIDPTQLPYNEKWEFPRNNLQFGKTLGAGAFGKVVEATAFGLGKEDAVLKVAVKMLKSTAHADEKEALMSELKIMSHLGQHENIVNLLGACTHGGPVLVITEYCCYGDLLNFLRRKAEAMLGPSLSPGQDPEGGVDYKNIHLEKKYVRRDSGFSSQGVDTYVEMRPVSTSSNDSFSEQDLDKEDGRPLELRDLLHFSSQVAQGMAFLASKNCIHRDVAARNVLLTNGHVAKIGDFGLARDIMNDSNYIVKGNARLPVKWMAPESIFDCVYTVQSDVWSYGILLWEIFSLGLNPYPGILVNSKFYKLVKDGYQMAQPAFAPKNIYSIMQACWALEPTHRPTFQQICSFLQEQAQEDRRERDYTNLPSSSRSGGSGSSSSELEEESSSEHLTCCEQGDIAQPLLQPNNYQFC
# Mast/stem cell growth factor receptor Kit, sequence (P10721 whole entry): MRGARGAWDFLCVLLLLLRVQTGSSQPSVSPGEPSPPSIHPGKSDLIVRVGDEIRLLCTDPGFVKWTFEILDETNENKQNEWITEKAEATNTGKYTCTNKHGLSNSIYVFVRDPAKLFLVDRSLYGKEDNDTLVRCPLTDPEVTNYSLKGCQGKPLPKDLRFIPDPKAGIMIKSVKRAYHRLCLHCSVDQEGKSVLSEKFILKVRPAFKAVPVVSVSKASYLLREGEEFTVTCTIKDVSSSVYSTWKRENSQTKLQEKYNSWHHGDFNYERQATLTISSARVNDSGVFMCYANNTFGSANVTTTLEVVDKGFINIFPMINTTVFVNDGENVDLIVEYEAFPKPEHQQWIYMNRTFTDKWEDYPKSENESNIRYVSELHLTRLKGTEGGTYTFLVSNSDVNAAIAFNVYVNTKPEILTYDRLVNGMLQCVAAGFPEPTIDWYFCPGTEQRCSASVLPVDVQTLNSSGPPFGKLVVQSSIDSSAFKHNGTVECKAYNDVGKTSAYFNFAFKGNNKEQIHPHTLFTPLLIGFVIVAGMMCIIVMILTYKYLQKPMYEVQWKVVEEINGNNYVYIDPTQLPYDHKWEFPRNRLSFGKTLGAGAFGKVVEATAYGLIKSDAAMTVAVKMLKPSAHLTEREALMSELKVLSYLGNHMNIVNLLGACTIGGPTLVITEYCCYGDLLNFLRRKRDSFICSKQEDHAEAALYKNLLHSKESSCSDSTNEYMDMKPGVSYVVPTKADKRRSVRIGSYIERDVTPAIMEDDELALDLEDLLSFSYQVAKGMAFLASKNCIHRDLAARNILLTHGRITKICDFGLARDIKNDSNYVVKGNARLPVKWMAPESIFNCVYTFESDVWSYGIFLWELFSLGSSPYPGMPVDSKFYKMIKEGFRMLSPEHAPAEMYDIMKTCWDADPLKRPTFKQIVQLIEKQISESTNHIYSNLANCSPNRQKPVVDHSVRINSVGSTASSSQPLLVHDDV
# Serine/threonine-protein kinase B-raf (Homo sapiens, UniProt P15056, V600E), sequence (P15056 2-766 V600E limits assumed): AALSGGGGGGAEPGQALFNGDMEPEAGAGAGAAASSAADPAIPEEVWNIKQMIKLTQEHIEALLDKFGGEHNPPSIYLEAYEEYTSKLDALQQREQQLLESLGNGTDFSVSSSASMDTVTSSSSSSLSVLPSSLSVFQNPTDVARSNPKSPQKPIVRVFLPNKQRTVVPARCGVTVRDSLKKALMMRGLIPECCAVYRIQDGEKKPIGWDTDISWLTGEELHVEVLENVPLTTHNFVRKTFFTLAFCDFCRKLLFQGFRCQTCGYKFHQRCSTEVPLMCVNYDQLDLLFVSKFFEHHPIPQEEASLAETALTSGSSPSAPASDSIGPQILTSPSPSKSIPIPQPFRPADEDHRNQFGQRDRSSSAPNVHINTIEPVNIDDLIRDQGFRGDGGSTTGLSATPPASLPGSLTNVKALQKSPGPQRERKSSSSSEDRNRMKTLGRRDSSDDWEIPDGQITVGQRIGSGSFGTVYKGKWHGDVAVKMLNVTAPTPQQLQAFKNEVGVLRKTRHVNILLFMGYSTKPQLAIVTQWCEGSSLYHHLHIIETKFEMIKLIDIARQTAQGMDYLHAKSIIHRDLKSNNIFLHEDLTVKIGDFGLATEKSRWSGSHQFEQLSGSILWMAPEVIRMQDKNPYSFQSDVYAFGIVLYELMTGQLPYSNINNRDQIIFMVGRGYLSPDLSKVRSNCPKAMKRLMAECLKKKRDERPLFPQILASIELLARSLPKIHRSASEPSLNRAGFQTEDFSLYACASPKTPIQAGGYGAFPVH
# Proto-oncogene tyrosine-protein kinase Src, sequence (P12931 2-536 limits assumed): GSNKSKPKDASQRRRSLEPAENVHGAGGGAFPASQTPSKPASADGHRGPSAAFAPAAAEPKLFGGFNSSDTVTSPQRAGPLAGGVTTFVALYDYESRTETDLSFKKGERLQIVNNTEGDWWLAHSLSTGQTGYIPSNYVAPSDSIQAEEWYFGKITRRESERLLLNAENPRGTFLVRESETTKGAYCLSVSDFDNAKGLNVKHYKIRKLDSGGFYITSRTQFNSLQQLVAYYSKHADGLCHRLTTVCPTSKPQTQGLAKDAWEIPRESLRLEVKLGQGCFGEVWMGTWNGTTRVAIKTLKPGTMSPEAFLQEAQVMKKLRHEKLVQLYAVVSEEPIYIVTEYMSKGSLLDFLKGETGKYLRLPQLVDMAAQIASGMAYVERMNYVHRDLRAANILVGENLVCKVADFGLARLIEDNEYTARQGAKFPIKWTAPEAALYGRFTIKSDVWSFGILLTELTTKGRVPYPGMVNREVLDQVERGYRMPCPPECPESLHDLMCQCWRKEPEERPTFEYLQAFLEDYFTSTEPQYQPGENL
# RAF proto-oncogene serine/threonine-protein kinase, sequence (P04049 whole entry): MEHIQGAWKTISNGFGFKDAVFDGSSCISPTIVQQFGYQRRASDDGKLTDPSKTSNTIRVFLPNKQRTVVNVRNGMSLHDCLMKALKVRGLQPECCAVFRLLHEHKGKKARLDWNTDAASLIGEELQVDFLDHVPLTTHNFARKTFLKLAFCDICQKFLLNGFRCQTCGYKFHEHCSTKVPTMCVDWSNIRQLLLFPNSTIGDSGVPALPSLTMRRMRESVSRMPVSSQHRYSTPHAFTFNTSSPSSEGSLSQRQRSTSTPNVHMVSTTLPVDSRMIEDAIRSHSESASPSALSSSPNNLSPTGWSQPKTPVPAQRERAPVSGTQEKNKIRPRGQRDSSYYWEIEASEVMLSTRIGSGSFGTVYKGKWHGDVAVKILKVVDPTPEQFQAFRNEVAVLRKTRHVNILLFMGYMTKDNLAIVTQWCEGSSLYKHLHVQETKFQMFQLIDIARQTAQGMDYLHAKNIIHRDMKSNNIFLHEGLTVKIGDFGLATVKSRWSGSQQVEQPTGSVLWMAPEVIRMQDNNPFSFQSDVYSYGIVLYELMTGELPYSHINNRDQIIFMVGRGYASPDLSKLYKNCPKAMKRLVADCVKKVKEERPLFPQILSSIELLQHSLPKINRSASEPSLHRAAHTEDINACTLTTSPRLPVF
SMILES,IC50 [1] [µM],IC50 [3] [µM],IC50 [6] [µM],other results
CCC(C)S(=O)(=O)Nc1cccc(C(=O)c2c[nH]c3ncncc23)c1F (configuration not stated),–,≤ 10,≤ 10,IC50 [5]: ≤ 10 µM
CN(C)S(=O)(=O)Nc1ccc(F)c(C(=O)c2c[nH]c3ncncc23)c1F,≤ 10,≤ 10,≤ 10,–
CCCS(=O)(=O)Nc1ccc(F)c(C(=O)c2c[nH]c3ncnc(C)c23)c1F,≤ 10,≤ 10,≤ 10,IC50 [7]: ≤ 10 µM; IC50 [8]: ≤ 10 µM; IC50 [5]: ≤ 10 µM
O=S(=O)(Nc1ccc(F)c(C(O)c2c[nH]c3ncnc(C4CC4)c23)c1F)c1ccc(C(F)(F)F)cc1 (configuration not stated),–,–,–,IC50 [7]: ≤ 10 µM
O=C(c1c(F)ccc(NS(=O)(=O)c2ccccc2F)c1F)c1c[nH]c2ncncc12,≤ 10,–,≤ 10,IC50 [4]: ≤ 10 µM
O=C(c1cccc(NS(=O)(=O)N2CCOCC2)c1F)c1c[nH]c2ncncc12,≤ 10,≤ 10,–,IC50 [5]: ≤ 10 µM; IC50 [9]: ≤ 10 µM
O=C(c1c(F)ccc(NS(=O)(=O)c2c(F)cccc2F)c1F)c1c[nH]c2ncncc12,≤ 10,≤ 10,≤ 10,–
CC(C)CS(=O)(=O)Nc1ccc(F)c(C(=O)c2c[nH]c3ncncc23)c1F,≤ 10,≤ 10,–,IC50 [5]: ≤ 10 µM
O=C(c1c(F)ccc(NS(=O)(=O)c2cc(F)ccc2F)c1F)c1c[nH]c2ncncc12,≤ 10,–,≤ 10,IC50 [5]: ≤ 10 µM; IC50 [4]: ≤ 10 µM
O=C(c1cccc(NS(=O)(=O)N2CCCC2)c1F)c1c[nH]c2ncncc12,≤ 10,≤ 10,–,–
O=C(c1c(F)ccc(NS(=O)(=O)CCC(F)(F)F)c1F)c1c[nH]c2ncncc12,≤ 10,≤ 10,–,IC50 [5]: ≤ 10 µM
O=C(c1c(F)ccc(NS(=O)(=O)CC(F)(F)F)c1F)c1c[nH]c2ncncc12,≤ 10,≤ 10,–,–
CCCC(C)S(=O)(=O)Nc1cccc(C(=O)c2c[nH]c3ncncc23)c1F (configuration not stated),–,–,≤ 10,IC50 [5]: ≤ 10 µM
O=C(c1c(F)ccc(NS(=O)(=O)N2CCOCC2)c1F)c1c[nH]c2ncncc12,≤ 10,≤ 10,–,IC50 [7]: ≤ 10 µM; IC50 [5]: ≤ 10 µM
CCCS(=O)(=O)Nc1cccc(C(=O)c2c[nH]c3ncncc23)c1F,≤ 10,≤ 10,–,IC50 [2]: ≤ 10 µM
O=C(c1c(F)ccc(NS(=O)(=O)c2cccc(OC(F)F)c2)c1F)c1c[nH]c2ncncc12,≤ 10,≤ 10,–,IC50 [2]: ≤ 10 µM
CC(C)CS(=O)(=O)Nc1cccc(C(=O)c2c[nH]c3ncncc23)c1F,≤ 10,≤ 10,–,–
O=C(c1c(F)ccc(NS(=O)(=O)C2CCCCC2)c1F)c1c[nH]c2ncncc12,≤ 10,≤ 10,≤ 10,IC50 [7]: ≤ 10 µM; IC50 [5]: ≤ 10 µM
CCS(=O)(=O)Nc1ccc(F)c(C(=O)c2c[nH]c3ncncc23)c1F,≤ 10,≤ 10,–,–
CC(C)S(=O)(=O)Nc1ccc(F)c(C(=O)c2c[nH]c3ncncc23)c1F,–,≤ 10,≤ 10,–
O=C(c1cccc(NS(=O)(=O)C2CCCC2)c1F)c1c[nH]c2ncncc12,≤ 10,≤ 10,≤ 10,–
O=C(c1c(F)ccc(NS(=O)(=O)C2CCC2)c1F)c1c[nH]c2ncncc12,≤ 10,≤ 10,≤ 10,–
CCCS(=O)(=O)Nc1cccc(C(=O)c2c[nH]c3ncnc(OC)c23)c1F,≤ 10,–,≤ 10,IC50 [8]: ≤ 10 µM; IC50 [5]: ≤ 10 µM; IC50 [4]: ≤ 10 µM
O=C(c1cccc(NS(=O)(=O)C2CCCCC2)c1F)c1c[nH]c2ncncc12,≤ 10,≤ 10,–,IC50 [5]: ≤ 10 µM
O=C(c1c(F)ccc(NS(=O)(=O)c2ccccn2)c1F)c1c[nH]c2ncncc12,≤ 10,≤ 10,–,–
CN(C)S(=O)(=O)Nc1cccc(C(=O)c2c[nH]c3ncncc23)c1F,–,≤ 10,–,IC50 [5]: ≤ 10 µM
CCC(C)S(=O)(=O)Nc1ccc(F)c(C(=O)c2c[nH]c3ncncc23)c1F (configuration not stated),≤ 10,≤ 10,–,–
O=C(c1c(F)ccc(NS(=O)(=O)c2ccc(F)cc2F)c1F)c1c[nH]c2ncncc12,≤ 10,≤ 10,≤ 10,IC50 [7]: ≤ 10 µM
CCCS(=O)(=O)Nc1ccc(F)c(C(=O)c2c[nH]c3ncncc23)c1F,≤ 10,–,–,IC50 [2]: ≤ 10 µM; IC50 [4]: ≤ 10 µM; IC50 [10]: ≤ 10 µM
O=C(c1cccc(NS(=O)(=O)C2CCC2)c1F)c1c[nH]c2ncncc12,–,≤ 10,≤ 10,IC50 [5]: ≤ 10 µM

# Continued, in another order:
IC50 [1] [µM],IC50 [3] [µM],IC50 [6] [µM],SMILES,other results
≤ 10,≤ 10,–,O=C(c1c(F)ccc(NS(=O)(=O)c2ccc(OC(F)F)cc2)c1F)c1c[nH]c2ncncc12,IC50 [2]: ≤ 10 µM
≤ 10,–,–,CCCc1ccc(S(=O)(=O)Nc2ccc(F)c(C(=O)c3c[nH]c4ncncc34)c2F)cc1,IC50 [2]: ≤ 10 µM; IC50 [4]: ≤ 10 µM
≤ 10,≤ 10,≤ 10,O=C(c1cccc(NS(=O)(=O)c2ccc(F)cc2F)c1F)c1c[nH]c2ncncc12,–
≤ 10,≤ 10,–,O=C(c1cccc(NS(=O)(=O)CC(F)(F)F)c1F)c1c[nH]c2ncncc12,IC50 [9]: ≤ 10 µM
≤ 10,–,≤ 10,O=C(c1cccc(NS(=O)(=O)c2cc(F)ccc2F)c1F)c1c[nH]c2ncncc12,IC50 [8]: ≤ 10 µM; IC50 [5]: ≤ 10 µM; IC50 [4]: ≤ 10 µM
≤ 10,–,≤ 10,COc1ncnc2[nH]cc(C(=O)c3cccc(NS(=O)(=O)c4ccc(C(F)(F)F)cc4)c3F)c12,IC50 [4]: ≤ 10 µM
≤ 10,≤ 10,–,O=C(c1cccc(NS(=O)(=O)c2cccnc2)c1F)c1c[nH]c2ncncc12,–
≤ 10,≤ 10,≤ 10,CC(C)(C)c1ccc(S(=O)(=O)Nc2ccc(F)c(C(=O)c3c[nH]c4ncncc34)c2F)cc1,–
–,≤ 10,–,O=C(c1cccc(NS(=O)(=O)c2ccc(F)cc2)c1F)c1c[nH]c2ncncc12,–
≤ 10,–,–,O=C(c1cccc(NS(=O)(=O)c2ccc(C(F)(F)F)cc2)c1F)c1c[nH]c2ncncc12,IC50 [2]: ≤ 10 µM; IC50 [4]: ≤ 10 µM
≤ 10,–,–,O=C(c1cccc(NS(=O)(=O)c2cccc(F)c2)c1F)c1c[nH]c2ncncc12,IC50 [4]: ≤ 10 µM
≤ 10,–,–,COc1ncnc2[nH]cc(C(=O)c3c(F)ccc(NS(=O)(=O)c4ccc(C(F)(F)F)cc4)c3F)c12,IC50 [8]: ≤ 10 µM; IC50 [4]: ≤ 10 µM
≤ 10,≤ 10,≤ 10,O=C(c1c(F)ccc(NS(=O)(=O)c2ccc(C(F)(F)F)cc2)c1F)c1c[nH]c2ncncc12,IC50 [8]: ≤ 10 µM; IC50 [10]: ≤ 10 µM
≤ 10,≤ 10,≤ 10,CC(C)c1ccc(S(=O)(=O)Nc2ccc(F)c(C(=O)c3c[nH]c4ncncc34)c2F)cc1,IC50 [2]: ≤ 10 µM
≤ 10,–,≤ 10,O=C(c1cccc(NS(=O)(=O)c2ccccc2F)c1F)c1c[nH]c2ncncc12,IC50 [8]: ≤ 10 µM; IC50 [4]: ≤ 10 µM
≤ 10,≤ 10,–,O=C(c1c(F)ccc(NS(=O)(=O)c2ccc(F)cc2)c1F)c1c[nH]c2ncncc12,–
≤ 10,–,–,O=C(c1c(F)ccc(NS(=O)(=O)c2cccc(F)c2)c1F)c1c[nH]c2ncncc12,IC50 [4]: ≤ 10 µM
